From PubChem BioAssay AID330 (DTP/NCI, 2004)
Values joined by “and” are separate entries in the source; they are usually repeats but may differ in a detail not shown here. Equal values may be shown once. Toxic doses and inconclusive results are not listed. Rule for the calls: active = survival T/C of 150% or more; inactive = T/C below 125% in these data.

Tested on: P388 leukemia ip, CD2F1 mice, survival T/C
Experiment: NCI In Vivo Anticancer Drug Screen. Data for tumor model P388 Leukemia (intraperitoneal) in CD2F1 (CDF1) mice
Details: endpoint: median survival time, higher = longer survival
Method in brief: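 Mice carrying the transplanted tumor received test compound or vehicle. Survival was recorded in each group, and the value is the treated-group measurement divided by that of the vehicle-treated control group.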

[1] = dose: 50.0 mg/kg/injection, schedule: Q01DX009 (ip), vehicle: saline
[2] = dose: 100.0 mg/kg/injection, schedule: Q01DX009 (ip), vehicle: saline
[3] = dose: 200.0 mg/kg/injection, schedule: Q01DX009 (ip), vehicle: saline
[4] = dose: 50.0 mg/kg/injection, schedule: Q01DX005 (ip), vehicle: saline with Tween-80
[5] = dose: 100.0 mg/kg/injection, schedule: Q01DX005 (ip), vehicle: saline with Tween-80
[6] = dose: 30.0 mg/kg/injection, schedule: Q01DX005 (ip), vehicle: saline with Tween-80
[7] = dose: 60.0 mg/kg/injection, schedule: Q01DX005 (ip), vehicle: saline with Tween-80
[8] = dose: 50.0 mg/kg/injection, schedule: Q01DX005 (ip), vehicle: Klucel (hydroxypropylcellulose) (HPC)
[9] = dose: 200.0 mg/kg/injection, schedule: Q01DX005 (ip), vehicle: saline with Tween-80
[10] = dose: 60.0 mg/kg/injection, schedule: Q01DX005 (ip), vehicle: saline
[11] = dose: 120.0 mg/kg/injection, schedule: Q01DX005 (ip), vehicle: saline

Measured: T/C

C=C1C(=O)OC2CC1C(OC(C)=O)C/C(C)=C/CC/C(C)=C\CCC2(C)O (stereo not given)
inactive: dose: 5.0 mg/kg/injection, schedule: Q01DX009 (ip), vehicle: Klucel (hydroxypropylcellulose) (HPC) 107 % of control | dose: 8.0 mg/kg/injection, schedule: Q01DX009 (ip), vehicle: Klucel (hydroxypropylcellulose) (HPC) 103 % of control | dose: 10.0 mg/kg/injection, schedule: Q01DX009 (ip), vehicle: Klucel (hydroxypropylcellulose) (HPC) 109 % of control | dose: 16.0 mg/kg/injection, schedule: Q01DX009 (ip), vehicle: Klucel (hydroxypropylcellulose) (HPC) 95 % of control | dose: 20.0 mg/kg/injection, schedule: Q01DX009 (ip), vehicle: Klucel (hydroxypropylcellulose) (HPC) 116 % of control | dose: 25.0 mg/kg/injection, schedule: Q04DX002 (ip), vehicle: saline 100 % of control | dose: 32.0 mg/kg/injection, schedule: Q01DX009 (ip), vehicle: Klucel (hydroxypropylcellulose) (HPC) 106 % of control | dose: 40.0 mg/kg/injection, schedule: Q01DX009 (ip), vehicle: Klucel (hydroxypropylcellulose) (HPC) 117 % of control | dose: 50.0 mg/kg/injection, schedule: Q04DX002 (ip), vehicle: saline 94 % of control | dose: 64.0 mg/kg/injection, schedule: Q01DX009 (ip), vehicle: Klucel (hydroxypropylcellulose) (HPC) 106 % of control | dose: 100.0 mg/kg/injection, schedule: Q04DX002 (ip), vehicle: saline 103 % of control | dose: 200.0 mg/kg/injection, schedule: Q04DX002 (ip), vehicle: saline 103 % of control

O=C(c1cc2ccccc2o1)N1CCN(Cc2ccccc2)CC1
inactive: dose: 50.0 mg/kg/injection, schedule: Q01DX009 (ip), vehicle: Klucel (hydroxypropylcellulose) (HPC) 102 % of control | dose: 100.0 mg/kg/injection, schedule: Q01DX009 (ip), vehicle: Klucel (hydroxypropylcellulose) (HPC) 101 % of control | dose: 200.0 mg/kg/injection, schedule: Q01DX009 (ip), vehicle: Klucel (hydroxypropylcellulose) (HPC) 109 % of control

COc1cc2c(c(OC)c1OC)-c1cc3c(cc1CC(COC(C)=O)C(COC(C)=O)C2)OCO3 (stereo not given)
inactive: dose: 6.25 mg/kg/injection, schedule: Q04DX002 (ip), vehicle: saline with Tween-80 103 % of control | dose: 12.5 mg/kg/injection, schedule: Q04DX002 (ip), vehicle: saline with Tween-80 101 % of control | dose: 25.0 mg/kg/injection, schedule: Q04DX002 (ip), vehicle: saline with Tween-80 100 % of control

COP(=O)(O)Oc1ccccc1 (tested in a mixture with another compound)
inactive: [1] 101 % of control | [2] 100 % of control | [3] 99 % of control

C=C(C)C1(C)CC1c1ccncc1 (stereo not given)
inactive: dose: 25.0 mg/kg/injection, schedule: Q01DX005 (ip), vehicle: saline with Tween-80 102 % of control | [4] 103 % of control | [5] 94 % of control

COc1ccc(CCNC2Oc3ccc([N+](=O)[O-])cc3-c3nc(C)c(C#N)cc32)cc1OC (stereo not given)
inactive: dose: 15.0 mg/kg/injection, schedule: Q01DX005 (ip), vehicle: saline with Tween-80 98 % of control | [6] 98 % of control | [7] 91 % of control and 92 % of control

O=C(O)[C@H](Cc1ccccc1)N1C(=O)c2ccccc2C1=O
inactive: dose: 50.0 mg/kg/injection, schedule: Q01DX005 (ip), vehicle: DMSO 105 % of control | [8] 109 % of control | dose: 100.0 mg/kg/injection, schedule: Q01DX005 (ip), vehicle: DMSO 100 % of control | dose: 100.0 mg/kg/injection, schedule: Q01DX005 (ip), vehicle: Klucel (hydroxypropylcellulose) (HPC) 105 % of control | [5] 99 % of control | dose: 125.0 mg/kg/injection, schedule: Q01DX001 (ip), vehicle: saline with Tween-80 102 % of control | dose: 200.0 mg/kg/injection, schedule: Q01DX005 (ip), vehicle: DMSO 100 % of control | dose: 200.0 mg/kg/injection, schedule: Q01DX005 (ip), vehicle: Klucel (hydroxypropylcellulose) (HPC) 101 % of control | [9] 107 % of control | dose: 250.0 mg/kg/injection, schedule: Q01DX001 (ip), vehicle: saline with Tween-80 95 % of control | dose: 400.0 mg/kg/injection, schedule: Q01DX005 (ip), vehicle: DMSO 100 % of control | dose: 400.0 mg/kg/injection, schedule: Q01DX005 (ip), vehicle: saline with Tween-80 105 % of control | dose: 500.0 mg/kg/injection, schedule: Q01DX001 (ip), vehicle: saline with Tween-80 100 % of control and 105 % of control | dose: 800.0 mg/kg/injection, schedule: Q01DX005 (ip), vehicle: DMSO 107 % of control

CCOc1cccc(/C=N/NC(=O)C(=O)Nc2cccc(C(F)(F)F)c2)c1O
inactive: dose: 12.5 mg/kg/injection, schedule: Q01DX005 (ip), vehicle: Klucel (hydroxypropylcellulose) (HPC) 98 % of control | dose: 25.0 mg/kg/injection, schedule: Q01DX005 (ip), vehicle: Klucel (hydroxypropylcellulose) (HPC) 95 % of control | [8] 89 % of control and 90 % of control

NC(=O)[C@H]1C[C@H](O)CN1C(=O)c1cnc2ccccc2c1
inactive: [10] 112 % of control | [11] 98 % of control | dose: 240.0 mg/kg/injection, schedule: Q01DX005 (ip), vehicle: saline 102 % of control

O=C(O)C(Cc1ccccc1)NC(c1ccc(Cl)cc1)P(=O)(O)O (stereo not given)
inactive: [7] 98 % of control | dose: 120.0 mg/kg/injection, schedule: Q01DX005 (ip), vehicle: saline with Tween-80 105 % of control | dose: 240.0 mg/kg/injection, schedule: Q01DX005 (ip), vehicle: saline with Tween-80 97 % of control

O=C(O)c1c[nH]c2cc(S(=O)(=O)O)ccc2c1=O
inactive: [1] 95 % of control | [2] 100 % of control | [3] 92 % of control

COc1ccc2c(N=[N+]=[N-])cc(C)nc2c1
inactive: [6] 97 % of control | [7] 100 % of control and 91 % of control

CC1(C)CCSC(/C=C/c2ccccc2)=N1
inactive: dose: 100.0 mg/kg/injection, schedule: Q01DX009 (ip), vehicle: other 109 % of control | dose: 200.0 mg/kg/injection, schedule: Q01DX009 (ip), vehicle: other 115 % of control | dose: 400.0 mg/kg/injection, schedule: Q01DX009 (ip), vehicle: other 108 % of control

C=CC(COC(=O)C(Cl)(Cl)Cl)NC(=O)C(Cl)(Cl)Cl (stereo not given)
inactive: dose: 6.25 mg/kg/injection, schedule: Q01DX005 (ip), vehicle: distilled water + Tween-80 100 % of control | dose: 12.5 mg/kg/injection, schedule: Q01DX005 (ip), vehicle: distilled water + Tween-80 90 % of control | dose: 25.0 mg/kg/injection, schedule: Q01DX005 (ip), vehicle: distilled water + Tween-80 100 % of control | dose: 50.0 mg/kg/injection, schedule: Q01DX005 (ip), vehicle: distilled water + Tween-80 100 % of control | dose: 100.0 mg/kg/injection, schedule: Q01DX005 (ip), vehicle: distilled water + Tween-80 95 % of control

COC(=O)c1ccc(NCC(=N)N)cc1
inactive: dose: 50.0 mg/kg/injection, schedule: Q01DX001 (ip), vehicle: saline 100 % of control | dose: 100.0 mg/kg/injection, schedule: Q01DX001 (ip), vehicle: saline 100 % of control | dose: 200.0 mg/kg/injection, schedule: Q01DX001 (ip), vehicle: saline 104 % of control

CC(C)N(C(=S)/N=C1/SCS(=O)(=O)N1C)C(C)C
inactive: dose: 50.0 mg/kg/injection, schedule: Q04DX003 (ip), vehicle: saline with Tween-80 101 % of control | dose: 100.0 mg/kg/injection, schedule: Q04DX003 (ip), vehicle: saline with Tween-80 104 % of control | dose: 200.0 mg/kg/injection, schedule: Q04DX003 (ip), vehicle: saline with Tween-80 104 % of control

CCCCCCCC/C=C\CCCCCCCC(=O)OCCN(CCOC(=O)CCCCCCC/C=C/CCCCCCCC)C(=O)COC(=O)CCCCCCC/C=C\CCCCCCCC
inactive: dose: 50.0 mg/kg/injection, schedule: Q01DX009 (ip), vehicle: saline with Tween-80 104 % of control | dose: 100.0 mg/kg/injection, schedule: Q01DX009 (ip), vehicle: saline with Tween-80 104 % of control | dose: 200.0 mg/kg/injection, schedule: Q01DX009 (ip), vehicle: saline with Tween-80 104 % of control

COC(=O)c1c(C(=O)Nc2ccccc2)c(-c2ccccc2)n(NC(N)=O)c1C
inactive: [4] 112 % of control | [5] 107 % of control | [9] 104 % of control

O=C(Nc1ccc(Cl)cc1)/C(Cl)=C1/Sc2ccccc2NC1=O
inactive: dose: 100.0 mg/kg/injection, schedule: Q01DX001 (ip), vehicle: saline with Tween-80 97 % of control | dose: 200.0 mg/kg/injection, schedule: Q01DX001 (ip), vehicle: saline with Tween-80 91 % of control | dose: 400.0 mg/kg/injection, schedule: Q01DX001 (ip), vehicle: saline with Tween-80 91 % of control

N=c1ccccn1CCO
inactive: [10] 94 % of control | [11] 99 % of control
